# Results as given in patent US7235267B1, “Brain cell or nerve cell-protecting agents comprising medicinal ginseng” (priority 1999, dated 2007).
# Key:
# [1] = tested on: SH-SP rats with MCA permanent occlusion; assay: TTC staining of cerebral infarct lesion 24 hours after MCA permanent occlusion; assay type: in vivo, rat
# [2] = tested on: Wistar rats with spinal cord injury; assay: Spinal cord injury model (20 g compression on lower thoracic cord for 20 minutes); assay type: in vivo, rat; details: for paralysis or paraplegia of both lower limbs: Solu-Medrol intravenous 30 mg/kg on the same schedule, 30 mg/kg
# Excerpt: The present inventors have investigated the effects of repetitive or continuous intravenous administration of ginsenoside Rb1 using rats with spinal cord injury and the effects were compared with those of repetitive or continuous intravenous administration of a crude saponin fraction of medicinal ginseng. If pressure is loaded on certain spinal segments such as the lower thoracic cord, not only nerve cells (neurons) in the gray matter of the same region but also fiber tracts or pathways in the white matter of the same region are damaged. The damages to the fiber tracts or pathways of the white matter are further developed to the distal portions (caudal portions) as well as causing the secondary degeneration of the origins of the fiber tract or pathways, namely the upper nerve cell bodies (i.e. origins) which project fibers (nerve processes) to the fiber tracts or pathways. As a result, the damages to the fiber tracts or pathways of the white matter in the lower thoracic cord, which received compression loading, induce the secondary degeneration of the origins (nerve cell bodies) sending fibers (also termed nerve processes or axons) to the fiber tracts or pathways as well as the secondary degeneration of fiber tracts located distal to the lower thoracic cord (i.e. lumbar cord and sacral cord) to cause paraplegia of both limbs. Further, since the innervation from the brain regions proximal to the lumbar cord and sacral cord is cut off due to damage to the lower thoracic cord, the secondary degeneration of nerve cells in the gray matters of the lumbar cord and sacral cord is further induced, as a result, paraplegia of the limbs can not be recovered. For that model of the spinal cord injury, the present inventors have used male Wistar rats (body weight about 300 g) loaded with 20 g of compression on the lower thoracic cord for 20 minutes.
# Under inhalation anesthesia by a mixture of nitrous oxide and halothane, the rats were loaded with 20 g of compression on the lower thoracic cord for 20 minutes. After more than 30 minutes passed, ginsenoside Rb1 dissolved in physiological saline was injected once into the left femoral vein (12 μg or 60 μg), thereafter continuous or repetitive intravenous administration of ginsenoside Rb1 was performed for 7 days by using an Alza osmotic minipump (12 μg/day or 60 μ/day). Control animals and sham-operated animals were administered with the same amount of physiological saline (vehicle) alone. The open field locomotor scores [Basso, Bettie and Bresnakan (BBB) scores] were measured in each animal before loading spinal cord injury, on the day of spinal cord injury and from 1st day to 7th day after the spinal cord injury for use as an index of motor functions (Basso D. M. et al., J. Neurotrauma, 13, 343-359, 1996). BBB scores of the sham-operated rats (normal rats) were 20-21.
# Under inhalation anesthesia by a mixture of nitrous oxide and halothane, the rats were loaded with 20 g of compression on the lower thoracic cord for 20 minutes. More than 30 minutes later, the crude saponin fraction dissolved in physiological saline was infused once into the left femoral vein (870 μg), thereafter continuous intravenous administration of the crude saponin fraction was performed for 7 days by using an Alza osmotic minipump (870 μg/day). Control animals with spinal cord injuries were administered with the same amount of physiological saline (vehicle) alone. […] These figures are photographs in place of drawings.
# Under inhalation anesthesia by a mixture of nitrous oxide and halothane, wistar rats (body weight about 300 g) were loaded with 20 g of compression on the lower thoracic cord for 20 minutes. After they were awakened from anesthesia, the rats with paraplegia in both hindlimbs were allowed to stay for 1 hour and 40 minutes in the cage. […]
Structure (SMILES),cerebral infarct lesion (TTC staining) ([1]; dihydroginsenoside Rb1 intravenous 6 μg/day for 24 hours after MCA permanent occlusion),volume of cerebral infarct lesion relative to non-administered group ([1]; intravenous low doses),"experimental animals died within 7 days after spinal cord injuries ([2]; Solu-Medrol 30 mg/kg, 4 out of 10 rats)",paralysis or paraplegia of both lower limbs [2],paralysis or paraplegia of both lower limbs ([2]; listed as Solu-Medol),"healing of the operative dorsal wounds / ill effects ([2]; rat, in vivo)"
CC(C)CCC[C@](C)(O[C@@H]1O[C@H](CO[C@@H]2O[C@H](CO)[C@@H](O)[C@H](O)[C@H]2O)[C@@H](O)[C@H](O)[C@H]1O)[C@H]1CC[C@]2(C)[C@@H]1[C@H](O)C[C@@H]1[C@@]3(C)CC[C@H](O[C@@H]4O[C@H](CO)[C@@H](O)[C@H](O)[C@H]4O[C@@H]4O[C@H](CO)[C@@H](O)[C@H](O)[C@H]4O)C(C)(C)[C@@H]3CC[C@]12C [dihydroginsenoside Rb1],markedly reduced,about ¼,,,,
C[C@H]1C[C@@H]2[C@H]([C@@H](O)C[C@@]3(C)[C@H]2CC[C@]3(O)C(=O)COC(=O)CCC(=O)[O-])[C@@]2(C)C=CC(=O)C=C12.[Na+] [reference compound],,,about 40%,no significant ameliorating effects,could not ameliorate,obviously delayed
